# Test results as given in PubChem BioAssay (NCI).
#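 Tested at 5 concentrations; 48 h exposure; 96-well plates; endpoints linearly interpolated, else capped at highest concentration. Abbreviation: GI50, concentration required for 50% inhibition of growth. The concentration for full growth arrest is given as TGI.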
# Experiments:
# Test in all cases: NCI tumour cell line growth inhibition, 48 h
# 786-0 renal = tested on: 786-0 renal
# A498 renal = tested on: A498 renal
# A549 NSCLC = tested on: A549 NSCLC
# ACHN renal = tested on: ACHN renal
# BT-549 breast = tested on: BT-549 breast
# CAKI-1 renal = tested on: CAKI-1 renal
# CCRF-CEM leukemia = tested on: CCRF-CEM leukemia
# COLO 205 colon = tested on: COLO 205 colon
# DU-145 prostate = tested on: DU-145 prostate
# EKVX NSCLC = tested on: EKVX NSCLC
# HCC-2998 colon = tested on: HCC-2998 colon
# HCT-116 colon = tested on: HCT-116 colon
# HCT-15 colon = tested on: HCT-15 colon
# HL-60(TB) leukemia = tested on: HL-60(TB) leukemia
# HOP-62 NSCLC = tested on: HOP-62 NSCLC
# HOP-92 NSCLC = tested on: HOP-92 NSCLC
# HS 578T breast = tested on: HS 578T breast
# HT29 colon = tested on: HT29 colon
# IGROV1 ovarian = tested on: IGROV1 ovarian
# K-562 leukemia = tested on: K-562 leukemia
# KM12 colon = tested on: KM12 colon
# LOX IMVI melanoma = tested on: LOX IMVI melanoma
# MALME-3M melanoma = tested on: MALME-3M melanoma
# MCF7 breast = tested on: MCF7 breast
# MDA-MB-231 breast = tested on: MDA-MB-231 breast
# MDA-MB-435 = tested on: MDA-MB-435
# MOLT-4 leukemia = tested on: MOLT-4 leukemia
# NCI-H226 lung = tested on: NCI-H226 lung
# NCI-H23 lung = tested on: NCI-H23 lung
smiles,measurement,setting,value
CC1=C2C(=C[C@@](C)(COC(=O)c3ccc(S(=O)(=O)F)cc3)[C@@H]2O)C(=O)[C@](C)(O)C12CC2,GI50,786-0 renal,2150 nM
same,TGI,786-0 renal,7930 nM
same,GI50,A498 renal,2270 nM
same,TGI,A498 renal,5620 nM
same,GI50,A549 NSCLC,2870 nM
same,TGI,A549 NSCLC,> 26100 nM
same,GI50,ACHN renal,541 nM
same,TGI,ACHN renal,1730 nM
same,GI50,BT-549 breast,1220 nM
same,TGI,BT-549 breast,2840 nM
same,GI50,CAKI-1 renal,631 nM
same,TGI,CAKI-1 renal,2450 nM
same,GI50,CCRF-CEM leukemia,3210 nM
same,TGI,CCRF-CEM leukemia,> 28000 nM
same,GI50,COLO 205 colon,951 nM
same,TGI,COLO 205 colon,2720 nM
same,GI50,DU-145 prostate,522 nM
same,TGI,DU-145 prostate,3040 nM
same,GI50,EKVX NSCLC,2420 nM
same,TGI,EKVX NSCLC,6470 nM
same,GI50,HCC-2998 colon,945 nM
same,TGI,HCC-2998 colon,2710 nM
same,GI50,HCT-116 colon,587 nM
same,TGI,HCT-116 colon,2500 nM
same,GI50,HCT-15 colon,424 nM
same,TGI,HCT-15 colon,2240 nM
same,GI50,HL-60(TB) leukemia,566 nM
same,TGI,HL-60(TB) leukemia,5910 nM
same,GI50,HOP-62 NSCLC,2550 nM
same,TGI,HOP-62 NSCLC,13800 nM
same,GI50,HOP-92 NSCLC,2170 nM
same,TGI,HOP-92 NSCLC,6010 nM
same,GI50,HS 578T breast,2420 nM
same,TGI,HS 578T breast,9570 nM
same,GI50,HT29 colon,498 nM
same,TGI,HT29 colon,2670 nM
same,GI50,IGROV1 ovarian,941 nM
same,TGI,IGROV1 ovarian,5060 nM
same,GI50,K-562 leukemia,3410 nM
same,TGI,K-562 leukemia,> 100000 nM
same,GI50,KM12 colon,4280 nM
same,TGI,KM12 colon,24900 nM
same,GI50,LOX IMVI melanoma,588 nM
same,TGI,LOX IMVI melanoma,2220 nM
same,GI50,MALME-3M melanoma,785 nM
same,TGI,MALME-3M melanoma,2330 nM
same,GI50,MCF7 breast,596 nM
same,TGI,MCF7 breast,9310 nM
same,GI50,MDA-MB-231 breast,1350 nM
same,TGI,MDA-MB-231 breast,6620 nM
same,GI50,MDA-MB-435,1170 nM
same,TGI,MDA-MB-435,2980 nM
same,GI50,MOLT-4 leukemia,2020 nM
same,TGI,MOLT-4 leukemia,> 25800 nM
same,GI50,NCI-H226 lung,2300 nM
same,TGI,NCI-H226 lung,9140 nM
same,GI50,NCI-H23 lung,1000 nM
